Results on eleven molecules are retold here after ChEMBL document CHEMBL6182872, “Synthesis of Benzo[h]quinoline derivatives and evaluation of their insecticidal activity against Culex pipiens L. larvae” (Eur J Med Chem, 2025).

Molecules are shown by their SMILES. Values after ≈ are worked out from the molar mass of the structure shown.

For the assay, the system named is Culex pipiens. Briefly: Toxicity in Culex pipiens at third larval instar measured after 24 hrs. In kind it is organism-based.
For the molecule `Cc1ccc(C(=O)C/C(=C\c2cc3ccc4ccccc4c3nc2Cl)C(=O)N/N=C/c2ccccc2O)cc1`, the LC50 (commonly the concentration lethal to half of the exposed cells or organisms) worked out at 29.3 µg/mL (≈ 54.9 µM).
Next, `CCCCCCCCCCCC(=O)NN1C(=O)/C(=C/c2cc3ccc4ccccc4c3nc2Cl)C=C1c1ccc(C)cc1`: 0.4 µg/mL (≈ 0.673 µM).
In the case of `COc1ccc(/C=N/NC(=O)/C(=C/c2cc3ccc4ccccc4c3nc2Cl)CC(=O)c2ccc(C)cc2)cc1OC` it was 202 µg/mL (≈ 349 µM); in that of `Cc1ccc(C(=O)C/C(=C\c2cc3ccc4ccccc4c3nc2Cl)C(=O)NNC(=O)CCC(=O)NNC(=O)/C(=C/c2cc3ccc4ccccc4c3nc2Cl)CC(=O)c2ccc(C)cc2)cc1`, 136 µg/mL (≈ 144 µM); in that of `CC(=O)NNC(=O)/C(=C/c1cc2ccc3ccccc3c2nc1Cl)CC(=O)c1ccc(C)cc1`, 116 µg/mL (≈ 245 µM).
Next, `Cc1ccc(C2=C/C(=C\c3cc4ccc5ccccc5c4nc3Cl)C(=O)N2NC(=O)c2ccccc2)cc1`: 4.9 µg/mL (≈ 9.5 µM); `Cc1ccc(C2=C/C(=C\c3cc4ccc5ccccc5c4nc3Cl)C(=O)N2NC(=O)CCl)cc1`: 23.9 µg/mL (≈ 48.9 µM).
As for `CC(=O)NN1C(=O)/C(=C/c2cc3ccc4ccccc4c3nc2Cl)C=C1c1ccc(C)cc1`, the LC50 amounted to 97.5 µg/mL (≈ 215 µM).
In the case of `Cc1ccc(C(=O)C/C(=C\c2cc3ccc4ccccc4c3nc2Cl)C(=O)NN)cc1` it was 86.4 µg/mL (≈ 201 µM).
In the case of `CC(=O)N(C(C)=O)N1C(=O)/C(=C/c2cc3ccc4ccccc4c3nc2Cl)C=C1c1ccc(C)cc1` it was 329 µg/mL (≈ 663 µM); in that of `CCOP(=S)(OCC)Oc1nc(Cl)c(Cl)cc1Cl` [CHLORPYRIFOS], 272 µg/mL (≈ 776 µM).
